# Results from patent EP4438597A1, “2-STYRYLBENZOTHIAZOLE DERIVATIVES AS A-SYNUCLEIN BINDING COMPOUNDS” (Eberhard Karls Universität Tübingen Medizinische Fakultät, priority 2023, dated 2024).
# Legend:
# [1] = in vivo dynamic PET/MR imaging, pharmacokinetic profile; conditions: healthy wild-type mice, i.v.
# Protocol: The animal experiments were performed in compliance to the European directives on the protection and use of laboratory animals (Council Directive 2010/63/UE) and the German animal welfare act with approval from the local authorities (Regierungspräsidium Tuebingen, R3/19G). Three healthy wild-type female C57BU6J mice (20.3 ± 0.9 g; 9 weeks old) purchased from Charles River Laboratories (Sulzbach, Germany) were maintained in a vivarium on a 12:12 hour light dark cycle and were kept at a temperature of 22°C with 40-60% humidity and free access to a standard diet and tap water.
# The mice (n = 3) were anaesthetized with 1.5% isoflurane evaporated in 100% oxygen at a flow rate of 0.8 L/min. Body temperature of 37°C was maintained using a feedback temperature control unit. PET imaging studies were performed on Inveon dedicated microPET system (Inveon D-PET, Siemens, Knoxville, TN, USA). Five seconds after the start of PET acquisition, mice were injected intravenously with 9.9 ± 0.6 MBq of [^18F]MFSB (Am = 46.2 ± 2.5 GBq/µmol at time of injection). The one-hour dynamic acquisitions were divided into 39 time frames (12×5 s, 6×10 s, 6×30 s, 5×60 s and 10×300 s). A 13-minute transmission measurement with a cobalt-57 point source was performed for attenuation correction. Subsequently, an anatomical magnetic resonance (MR) scan with a 7 Tesla MR scanner (ClinScan, Bruker BioSpin MRI GmbH, Ettlingen, Germany) using a rat whole-body volume coil and the Paravision software (v6.0.1, Bruker, Ettlingen, Germany) using a T2-weighted Turbo-RARE MRI sequence.
# The PET image was reconstructed via the OSEM3D/SP-MAP reconstruction algorithm and coregistered to the whole-body MRI scan. […] Standardized uptake values (SUVs) were calculated as a ratio of the detected activity with injected activity and weight (SUV = (TAC (kBq/cc) / inj. activity (kBq)) * weight (g)).
# αSYN pathology = molecular target: T1, αSYN pathology (Homo sapiens, UniProt P37840); assay: in vitro autoradiography on human brain slices with αSYN pathology (MSA, PD); assay type: binding; conditions: 10 nM tracer, NSB with 10 µM non-radioactive compound
# T1 construct: tissue Neurobiobank München (NBM, Munich, Germany); host or cells: post-mortem human brain slices (MSA cerebellum, PD frontal cortex, controls)
# Protocol: Post-mortem human brain slices (10 µm thickness) were obtained from and the subject cases were analyzed by the Neurobiobank München (NBM, Munich, Germany), where tissues were collected on the basis of written informed consent according to the guidelines of the ethics committee of the Ludwig-Maximilians-University Munich, Germany (# 345-13). The use of brain tissue samples in this study was approved by the ethics committee of the Faculty of Medicine at the University of Tuebingen (Ethics approval number: 813/2018BO2). Table 1 summarizes the information of the subjects from which samples were obtained and used in the experiment.
# For autoradiography, brain slices were thawed for one hour before preincubation in BSA buffer for 25 minutes at room temperature. To determine total binding (TB), brain slices were incubated with the tracer (10 nM [^18F]PFSB, 10 nM [^18F]MFSB). […]
# Quantitative data analysis was performed by drawing four regions of interest (ROIs) in relevant areas of the slice and one ROI next to it for background subtraction (imaged 1.8.0_172, National Institute of Health, Bethesda, Maryland, USA) (Schneider, C. A. et al., NIH Image to imaged: 25 years of image analysis; Nat Methods 2012, 9 (7), 671-5). […] The SB disease/SB control ratio was calculated by dividing by the SB in diseased tissues with the respective SB in control tissues.
smiles,measurement,setting,value
[18F]c1ccc2nc(/C=C/c3ccc(N4CCOCC4)cc3)sc2c1 [[^18F]MFSB],crossing of the BBB,[1]; dynamic PET/MR over 60 min,crossing of the BBB was successful
same,kidney uptake,[1]; dynamic PET/MR over 60 min,Significant kidney uptake
same,SUV in lungs and liver,[1]; first 2 min,≈ 5
same,"SB disease/SB control, MSA1/cerebellum ctrl",αSYN pathology,1.20
